Values quoted from earlier work in patent publication US10246411B2, “(Z)-3,4,5-trimethoxystyrylbenzenesulfonamides as potential anticancer agents” (COUNCIL OF SCIENTIFIC & INDUSTRIAL RESEARCH, priority 2014, dated 2019).

Columns and labels:
tubulin = conditions: background, literature; cited from earlier work
[1] = system: VCR-resistant P388 cell lines; conditions: two kinds of VCR-resistant P388 cell lines; background, literature; cited from earlier work

| Compound | inhibition of tubulin polymerization (tubulin) | activity against VCR-resistant P388 cell lines [1] |
| --- | --- | --- |
| COc1cc(/C=C\c2ccc(OC)c(N)c2)cc(OC)c1 [(Z)-5-(3,5-dimethoxystyryl)-2-methoxyaniline] | five times stronger than CA-4 |  |
| COc1ccc(/C=C\c2cc(OC)c(OC)c(OC)c2)cc1O [CA-4, Combretastatin A-4] | potent inhibitor of tubulin polymerization |  |
| COc1ccc(S(=O)(=O)Nc2cccnc2Nc2ccc(O)cc2)cc1 [E7010, N-[2-[(4-hydroxyphenyl)amino]-3-pyridinyl]-4-methoxybenzenesulfonamide] | dose-dependent inhibition of tubulin polymerization | active |
